From US20260345584A1, “METHODS AND PHARMACEUTICAL COMPOSITIONS FOR TREATING CHEMOTHERAPY-INDUCED PERIPHERAL NEUROPATHY WITH EG5 INHIBITORS” (UNIVERSITY OF MIAMI, priority 2023, published 2026)

Columns and labels:
[1] = test system: axonal microtubules; assay: Axonal detyrosination (GluTub) along axon segments in distal caudal fin; format: in vivo, zebrafish; details: EMD534085 alone, wildtype, 96 hr
Method: Larval fish were transferred into […] glass vials and fixed in 4% paraformaldehyde (PFA)/1× Phosphate-buffered saline (PBS) for 1.5 hr at room temperature, with gentle rocking. Following a 5-minute incubation in 1×PBS+0.1% Tween-20 (PBST), zebrafish were permeabilized in 1×PBS+0.1% Triton X-100 for 10-30 min. Larval fish were transferred into 2 ml reaction tubes and incubated in blocking buffer (1×PBST+5% BSA) for 30 min at room temperature, with rocking. Larval fish were further incubated overnight in antibody solution (Millipore Sigma, Cat. No. AB3201, 1:300 rabbit anti-GluTub; Sigma, Cat No. T6793, 1:500 mouse anti-acetylated tubulin) in blocking buffer at 4 °C, on a rotator. The next morning, larval fish were transferred into 6-well plates and washed 4×15 min in 1×PBST at room temperature, with rocking. […]
Axon branch number quantifications were performed by drawing a 50 μm line across the dorsal, medial, and ventral caudal fin edge region at a distance of 100 μm parallel to the fin edge (which was determined to be the most reliable region to quantify distal branch numbers). Axons traversing this line were counted and averaged per treatment group. Axonal fluorescence measurements were taken using the Imaris Spots function by manually placing spots along the axon and using the fluorescence intensity profile measurements MatLab tool.

[2] = test system: skin gene expression; assay: Human skin RNAseq of paclitaxel-treated CIPN patients; format: in vivo
Method: Neurological history, examination, and QLQ-CIPN20 quality of life questionnaire, which has been validated to detect the presence of CIPN (Postma et al., 2005, Eur J Cancer 41: 1135-1139), was completed in all subjects. Consent was given to obtain two skin punch biopsies of approximately 4 mm diameter. These were collected 10 cm proximal to the lateral malleolus on the distal leg as described previously (Engelstad et al., 2012, Neurology 79: 2187-2193). The biopsies were carried out under anesthesia following local injection of 2% lidocaine with epinephrine, using a sterile technique. In addition, three healthy volunteers of similar age and same gender (female) were recruited as controls. […] Sequence reads were trimmed to remove possible adapter sequences and nucleotides with poor quality using Trimmomatic v.0.36. The trimmed reads were mapped to the Homo sapiens GRCh38 reference genome available on ENSEMBL using the STAR aligner v.2.5.2b. The STAR aligner was a splice aligner that detects splice junctions and incorporates them to help align the entire read sequences. […] Unique gene hit counts were calculated by using featureCounts from the Subread package v.1.5.2. […] Only unique reads that fell within exon regions were counted. If a strand-specific library preparation was performed, the reads were strand-specifically counted. […]

Row | SMILES | normalized GluTub intensity ratios (axon) [1] | KIF11 expression ([2]; CIPN patients after paclitaxel vs controls) | NOX1 and CYBB expression ([2]; CIPN patients after paclitaxel vs healthy controls)
1 | CN(C)CCNC(=O)NC[C@H]1CC[C@@H]2[C@H](O1)c1cc(C(F)(F)F)ccc1N[C@H]2c1ccccc1 [EMD534085] | 2.13±0.13 |  | 
2 | CC(=O)O[C@H]1C(=O)[C@@]2(C)[C@H]([C@H](OC(=O)c3ccccc3)[C@]3(O)C[C@H](OC(=O)[C@H](O)[C@@H](NC(=O)c4ccccc4)c4ccccc4)C(C)=C1C3(C)C)[C@]1(OC(C)=O)CO[C@@H]1C[C@@H]2O [paclitaxel] |  | upregulated in all three patients | most highly upregulated genes
